# Experimental data published in patent publication US4806537A (City of Hope, priority 1988, dated 1989).
# Read-outs that look alike come from different tables or passages of the source.
# How the values were obtained:
# [1] = test system: K^+ transport; experiment: K^+ transport: ^86 Rb uptake by P3 membrane fractions of whole mouse brain; assay type: biochemical, Swiss mice; conditions: for IC50: ^86 Rb uptake, P3 fraction, 0° C., pH 7, 5 seconds; for K^+ transport inhibition activity relative to amodiaquin (in words): fraction of amodiaquin's activity; for K^+ Transport Relative Potency: relative to amodiaquin = 1; for Concentration inhibiting K^+ transport (selection criterion met): submillimolar concentrations
# Experimental: To obtain the data set forth in Table I, K^+ -transport was measured using P3 membrane fractions prepared from whole brains of Swiss mice. […] The resulting supernatant was centrifuged at 17,000 g for 15 minutes, and the supernatant from the latter was centrifuged at 70,000 g for 1 hour to pellet the P3 fraction. The P3 pellet was washed by resuspension in 50 mM Tris-citrate (pH 7.3). After 10 minutes on ice, the suspension was centrifuged at 70,000 g for 10 minutes. This washing procedure was repeated twice using distilled water for the resuspension. […] The suspension (2-3 mg protein/ml) was stabilized on ice for 1 hour prior to use. Uptake of ^86 Rb (radioactive) was used to assess the K^+ -transport of the P3 articles. Many published experiments have shown the ^86 Rb, with a half-life 36 times longer than ^42 K, is a suitable tracer for K. Rb permeates neuronal K channels as well as does K itself.
# After filtration of the samples, the filters were washed rapidly three times with 10^-3 M triethanolamine containing 0.1M RbCl (non-radioactive) and counted in ACS liquid scintillation cocktail (Amersham). In calculating the results, the uptake found in the presence of 0.1M non-radioactive RbCl was subtracted from that found in the presence of various concentrations of the test substances in the presence of 10^-6 M ^86 RbCl alone. […] Between 0.2 and 0.5 mg/ml usually were employed. The results were normalized by calculating them as percentages of the uptake observed with 10^-6 M ^86 RbCl alone.
# [2] = target: T1, Acetylcholinesterase (Electrophorus electricus, UniProt O42275); experiment: Acetylcholinesterase activity, acetylthiocholine substrate, colorimetric (Ellman); assay type: biochemical, electric eel; conditions: for Cholinesterase inhibitory potency relative to amodiaquin (in words): fraction of amodiaquin's inhibitory potency; for Acetylcholinesterase Activity Rank Order: rank among the five substances; for Acetylcholinesterase Activity Relative Potency: relative to amodiaquin = 1
# T1 construct: The enzyme employed was prepared from the electric organ of the electric eel; from tissue; host or cells: electric organ of the electric eel
# T1 sequence (O42275 24-633): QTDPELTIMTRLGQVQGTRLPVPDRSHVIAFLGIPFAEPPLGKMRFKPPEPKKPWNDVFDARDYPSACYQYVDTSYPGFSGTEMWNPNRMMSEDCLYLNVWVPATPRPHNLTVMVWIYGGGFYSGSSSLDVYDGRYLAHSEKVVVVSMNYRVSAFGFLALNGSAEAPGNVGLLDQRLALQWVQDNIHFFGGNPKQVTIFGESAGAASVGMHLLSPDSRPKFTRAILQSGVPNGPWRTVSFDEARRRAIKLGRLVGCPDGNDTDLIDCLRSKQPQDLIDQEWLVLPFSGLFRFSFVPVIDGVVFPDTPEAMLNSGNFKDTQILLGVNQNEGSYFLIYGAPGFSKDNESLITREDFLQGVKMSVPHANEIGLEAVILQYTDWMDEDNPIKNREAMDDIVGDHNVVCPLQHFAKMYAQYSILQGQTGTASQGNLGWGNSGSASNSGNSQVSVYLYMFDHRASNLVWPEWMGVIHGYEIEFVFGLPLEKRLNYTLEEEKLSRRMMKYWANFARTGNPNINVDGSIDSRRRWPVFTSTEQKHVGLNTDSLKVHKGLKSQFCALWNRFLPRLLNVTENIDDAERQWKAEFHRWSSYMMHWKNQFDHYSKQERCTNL
# Experimental: Cholinesterase activity reported in Table I was measured by a standard procedure. The enzyme employed was prepared from the electric organ of the electric eel. It is known to have the same properties as the enzyme of mammalian nervous tissue. Acetylthiocholine was used as substrate.
# Inhibitory potency of substances was determined by measuring enzyme activity in the absence and presence of varying concentrations of the test substances.
# [3] = test system: patients with AD; conditions: cited from earlier work
# [4] = test system: mice; conditions: cited from earlier work
# [5] = in vivo; cited from earlier work
# [6] = test system: cholinesterase; conditions: cited from earlier work
Structure (SMILES),IC50 [1] [µM],K^+ transport inhibition activity relative to amodiaquin (in words) [1],K^+ Transport Relative Potency [1],Concentration inhibiting K^+ transport (selection criterion met) [1],IC50 [2] [µM],Cholinesterase inhibitory potency relative to amodiaquin (in words) [2],Acetylcholinesterase Activity Rank Order [2],Acetylcholinesterase Activity Relative Potency [2],Effect on symptoms of AD [3],Effect on behavioral deficit produced by anoxia [4],Effect on general anesthesia [5],Cholinesterase inhibition [6],"IC50 ([2]; electric eel enzyme, acetylthiocholine substrate, read-out: Acetylcholinesterase Activity IC50) [µM]"
Nc1c2ccccc2nc2ccccc12 [9-aminoacridine],70,–,–,–,–,–,–,–,–,–,–,–,–
"CCN(CC)CCCC(C)Nc1c2ccc(Cl)cc2nc2ccc(OC)cc12 (centres unmarked) [Quinacrine, quinacrine]",90,approximately one-half,0.44,≤ 10^-3 M,4,less than one-thousandth,4(5),0.001,–,–,–,–,–
"Nc1ccncc1 [4AP, 4-aminopyridine]",–,–,–,–,–,–,–,–,may improve symptoms in some patients with AD,partially reversed the behavioral deficit,rapidly overcomes the effects of general anesthesia,–,–
"CCN(CC)Cc1cc(Nc2ccnc3cc(Cl)ccc23)ccc1O [Amodiaquin, amodiaquin]",40,–,–,–,0.004,–,–,–,–,–,–,effective cholinesterase inhibitor,–
"CCN(CC)CCCC(C)Nc1ccnc2cc(Cl)ccc12 (centres unmarked) [Chloroquine, chloroquine]",600,approximately one-twentieth,0.067,≤ 10^-3 M,–,less than one-thousandth,5(4),0.001,–,–,–,–,4
